Test results taken from the METLIN SMRT retention time set (Domingo-Almenara et al. 2019).

Test: gradient 5% acetonitrile 3 min, to 50% in 2 min, to 85% in 15 min, held 3 min, 100 µL/min
Conditions: column: Zorbax Extend-C18 2.1 x 50 mm; eluents: water / acetonitrile, 0.1% formic acid
Summary of the method: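 Each retention time is based on an adduct peak selected computationally and verified by manual inspection. Measurements used HPLC–quadrupole time-of-flight mass spectrometry in positive and negative ionization mode on mixtures of ~100 pure standards. Chromatography ran on a Zorbax Extend-C18 column (2.1 × 50 mm, 1.8 μm) at 100 μL/min with water and acetonitrile, each containing 0.1% formic acid, and dead and dwell volumes of 40 μL and 900 μL.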

Row | SMILES | RP-LC retention time
1 | CCc1nc2cc(-c3noc(-c4cccs4)n3)ccc2o1 | 1080 s
2 | CN(CCc1noc(-c2ccc(Cl)cc2)n1)C(=O)Nc1ccccc1F | 952 s
3 | Cc1ccc(-n2nc3c(=O)n(CCCC(=O)NC4CCCC4)nc(C)c3c2C)cc1 | 797 s
4 | Cc1nnc2ccc(N3CCOCC3)nn12 | 600 s
5 | Cc1ccc2c(c1)N(C)N=C(C(=O)N1CCOCC1)S2(=O)=O | 669 s
6 | O=C(NCCCN1CCCC1=O)C1c2ccccc2CC(=O)N1Cc1ccccc1 (stereo not drawn) | 678 s
7 | Cn1c(C2CCN(C(=O)c3ccc(Br)cc3)CC2)cc(=O)n2nccc12 | 679 s
8 | CCCn1cc(CCNS(=O)(=O)c2cccc(C)c2)c2cccnc21 | 866 s
9 | CC(C)Cc1cc(-c2nnc3sc(COc4ccccc4Cl)nn23)n[nH]1 | 941 s
10 | CC(=O)Nc1ccc(-n2cnc(C(=O)NCc3ccccc3F)c2)nc1 | 663 s
11 | Cc1cc(=O)n(CC(=O)N2CCCc3ccccc32)c(N2CCCC2)n1 | 665 s
12 | O=C(CN1CCN(Cc2ccc(F)cc2)C1=O)NCc1ccc(N2CCCC2)cc1 | 761 s
13 | COc1ccc(CC(=O)N2CCN(c3cc(C)n4c(C)nnc4n3)CC2)cc1Cl | 614 s
14 | CCCCN1N=C(C(=O)N2CCOCC2)S(=O)(=O)c2ccc(Cl)cc21 | 889 s
15 | O=S(=O)(Nc1ccc(Nc2ccc(-n3cccn3)nn2)cc1)c1ccc(F)cc1F | 788 s
16 | CC1=C(c2ccc(C)c(C)c2)S(=O)(=O)N=C1N1CCC(NC(=O)CCC(C)C)CC1 | 962 s
17 | COc1ccc(-c2noc(CN3C(=O)COc4cc(C)ccc43)n2)cc1 | 1030 s
18 | O=C(Cn1c(=O)c2cc(C3CC3)nn2c2ncccc21)NCc1cccs1 | 711 s
19 | Cc1nc2c(ccc3nc(NC(=O)c4ccccc4Br)sc32)s1 | 869 s
20 | Cn1c(=O)n(C)c2cc(CNc3ccc(Cl)cc3Cl)ccc21 | 1070 s
21 | CCCS(=O)(=O)c1nc2ccc(NS(=O)(=O)c3cc(OC)ccc3OC)cc2s1 | 909 s
22 | O=C(NCCc1ccncc1)C1CN(S(=O)(=O)c2ccccc2)CC12CCCCC2 (stereo not drawn) | 641 s

Row | SMILES | RP-LC retention time
23 | COc1cc(C(=O)N2CCC(CC(=O)N3CCOCC3)CC2)cc(OC)c1OC | 618 s
24 | CCC(Oc1ccc(=O)n(-c2ccc(F)cc2)n1)C(=O)NCCN1CCN(C)CC1 (stereo not drawn) | 585 s
25 | Cc1nn(-c2ccc(F)cc2)c(C)c1S(=O)(=O)N1CCC(C(=O)N2CCN(C)CC2)CC1 | 625 s
26 | COCCCn1cnc2c(-c3ccccc3)cn(CC(=O)NCc3ccco3)c2c1=O | 802 s
27 | Cc1cc(C)cc(NC(=O)Cn2ccc3ccc(-c4nnc(C)o4)cc32)c1 | 1300 s
28 | CCN1C(=O)C(CC(=O)NC2CCCCC2)Sc2ncccc21 (stereo not drawn) | 743 s
29 | COc1ccc(OCC(=O)N2CCN(c3cc(C)n4c(C)nnc4n3)CC2)cc1 | 599 s
30 | CCN(C(=O)CCc1ccccc1)c1nc(-c2ccccc2)cs1 | 1320 s
31 | COc1ccc(NC(=O)c2cnc(N3CCN(c4ccccc4F)CC3)nc2N)cc1 | 684 s
32 | CC1CCN(S(=O)(=O)c2ccc3c(c2)CCCC(=O)N3CC(=O)N2CCN(C)CC2)CC1 | 656 s
33 | CCCn1ccc2sc(C)c(C(=O)NC3CCCCCC3)c2c1=O | 897 s
34 | CCn1cc(S(=O)(=O)Nc2ccc(F)cc2Cl)c2cccnc21 | 870 s
35 | O=C(Cn1c(=O)c2cc(C3CC3)nn2c2ncccc21)Nc1cccc(F)c1 | 778 s
36 | O=C(Nc1ccc(Br)cc1F)C1CCCN(c2nc3ccccc3nc2C(F)(F)F)C1 (stereo not drawn) | 1360 s
37 | Cc1cnc(CC2CCN(S(=O)(=O)c3ccccc3)C2)n1C(C)C (stereo not drawn) | 650 s
38 | O=C(Cc1c[nH]c2ncccc12)NCC1CCCCC1 | 644 s
39 | O=C(c1cc(S(=O)(=O)N2CCCC(C(=O)N3CCCCCC3)C2)c[nH]1)N1CCCC1 (stereo not drawn) | 729 s
40 | CCCNc1cc(N2CCC(CCC(=O)N3CCN(c4ncccn4)CC3)CC2)ncn1 | 632 s
41 | COc1ccc(OC)c(NC(=O)NCc2cccn2Cc2ccccc2)c1 | 927 s
42 | O=C(c1cn(-c2cc(N3CCCCC3)ncn2)cn1)N1CC=C(c2ccccc2)CC1 | 1060 s
43 | O=C(Cn1nc2nc(N3CCCC3)ccn2c1=O)NCc1ccc(Cl)cc1 | 690 s
44 | Cc1ccc(NC(=O)CSc2ccc(N3CCCC(C(=O)NC4CC4)C3)nn2)cc1C (stereo not drawn) | 628 s

Row | SMILES | RP-LC retention time
45 | CCCNC(=O)C1CCCN(c2ccc(SCC(=O)Nc3ccccc3C(F)(F)F)nn2)C1 (stereo not drawn) | 690 s
46 | Cc1ccc(C(=O)N2C(C(=O)NCc3ccco3)COC23CCN(C(=O)C(C)(C)C)CC3)cc1 (stereo not drawn) | 756 s
47 | COc1cc(-c2nc3ncccn3c2Nc2cccc(Cl)c2C)ccc1O | 715 s
48 | Cn1c(=O)c(=O)n(CC(=O)NCCc2ccco2)c2cccnc21 | 646 s
49 | CCNS(=O)(=O)c1cccc(-c2nc(-c3ccc(C)cc3)no2)c1 | 1100 s
50 | Cc1cccc(NS(=O)(=O)c2cn(C(C)C)c3ncccc23)c1 | 892 s
51 | Cn1nc(N2CCC(NC(=O)Cc3cccs3)C2)ccc1=O (stereo not drawn) | 627 s
52 | Cc1ccc(CN2CC(n3cc(COc4ccc(F)cc4)nn3)C2)s1 | 684 s
53 | COC(=O)c1ccc2c(=O)n(-c3cc(C)cc(C)c3)c(N3CCN(Cc4ccccc4)CC3)nc2c1 | 770 s
54 | CC(C)c1ccc(-c2ccnc3c(C(=O)N4CCN(c5ccccn5)CC4)cnn23)cc1 | 710 s
55 | O=C(c1ccco1)N1CCC(n2cnnc2-c2ccccc2)CC1 | 639 s
56 | Cc1cc(C)n(Cc2nc(-c3ccc(NC(=O)Cc4ccccc4F)cc3)oc2C)n1 | 915 s
57 | Cc1ccc2c(=O)c(S(=O)(=O)c3ccccc3)cn(Cc3cccc(Cl)c3)c2n1 | 1030 s
58 | Cc1ccc(-c2[nH]ncc2CN2CCC3(CCC3O)CC2)cc1 (stereo not drawn) | 577 s
59 | COc1ccc(C(=O)N2CCC3(CC2)NC(=O)c2cc(F)ccc2N3C)cc1OC | 715 s
60 | COc1cccc2cc(C(=O)Nc3cc(C)nn3-c3ccccc3)oc12 | 832 s
61 | CCN(CC)C(=O)c1ccc2c(c1)nnn2CCNC(=O)Nc1ccc(Br)cc1 | 779 s
62 | Cn1nc(C(=O)N2CCCC2)c2c1CCN(C(=O)CCC(=O)N1CCCCC1)C2 | 653 s
63 | Cc1ccc(-n2ccnc2SCc2nc(-c3cccc(Br)c3)no2)cc1 | 1080 s
64 | CC1CCCN(CC2CCN(S(=O)(=O)Cc3ccc(Cl)cc3)CC2)C1 (stereo not drawn) | 690 s
65 | O=C(NCc1ccccn1)C1CCN(S(=O)(=O)c2cc(C(=O)N3CCCCCC3)cs2)CC1 | 638 s
66 | CCC(C)c1ccc(NC(=O)c2nn(C)cc2Cl)cc1 (stereo not drawn) | 1100 s

Row | SMILES | RP-LC retention time
67 | CCC(C)Nc1nc2c(c(=O)n(C)c(=O)n2C)n1C (stereo not drawn) | 742 s
68 | COc1ccc(C)cc1NC(=O)CN1CCN(Cc2ccccc2)C(=O)C1=O | 684 s
69 | CN(CCNC(=O)C1c2ccccc2C(=O)N(C)C1c1cccs1)C1CCCCC1 (stereo not drawn) | 706 s
70 | CCCNC(=O)C1CCN(c2ccc(SCC(=O)Nc3c(F)cccc3F)nn2)CC1 | 614 s
71 | CCC1CCCCN1C(=O)c1cnc2nc(C)ccc2c1Nc1ccc(OC)cc1 (stereo not drawn) | 665 s
72 | O=C(NCc1ccccc1)C1CCN(C(=O)C2Sc3ccccc3NC2=O)CC1 (stereo not drawn) | 741 s
73 | CCc1nnc2ccc(-c3noc(Cc4cc(OC)cc(OC)c4)n3)cn12 | 844 s
74 | O=C(NC1CCN(Cc2ccccc2)CC1)C1CCCN(C(=O)N2CCOc3ccccc32)C1 (stereo not drawn) | 641 s
75 | O=C(NCC1CC1)c1cn(-c2ccc(NC(=O)C3CC3)cn2)cn1 | 651 s
76 | CCC(C)NC(=O)c1cnn(-c2ccc(-c3nc(C(C)C)no3)cn2)c1C (stereo not drawn) | 1000 s
77 | O=C(N1CCC(Cc2nc(-c3ccc(F)cc3)no2)CC1)C1(c2ccccc2)CC1 | 1020 s
78 | COc1ccc(OC)c(NC(=O)C2CCCN(c3nnc4ccc(Cl)cn34)C2)c1 (stereo not drawn) | 810 s
79 | CCn1c(CCC(=O)NCc2ccc(F)cc2F)nc2c(C)cccc2c1=O | 872 s
80 | Cc1nc(-c2ccccn2)cc2nn(CC(=O)N3CCCc4ccccc43)c(=O)n12 | 789 s
81 | CCc1nc2cc(-c3noc(-c4ccc(CS(=O)(=O)c5ccccc5)cc4)n3)ccc2o1 | 1140 s
82 | Cc1nn(-c2ccc(-c3ccccc3)nn2)c(C)c1S(=O)(=O)N1CCN(c2ccccn2)CC1 | 776 s
83 | COc1cccc(NC(=O)Cn2nc3c(Oc4ccccc4Cl)nccn3c2=O)c1 | 865 s
84 | Cn1nc(-c2nnc(-c3ccccc3)o2)c2c1CCN(S(=O)(=O)c1ccccc1C(F)(F)F)C2 | 990 s
85 | Cc1ccc(-c2noc(Cn3ccnc3C)n2)cc1C | 670 s
86 | O=C(C1=NN(CCc2ccccc2)c2cc(Cl)ccc2S1(=O)=O)N1CCOCC1 | 906 s
87 | CCc1nc(-c2csc(S(=O)(=O)N3CCC(C(=O)Nc4ccc(Cl)cc4)CC3)c2)no1 | 1070 s
88 | COc1ccc2cc(C(=O)Nc3ccc(F)cc3C)[nH]c2c1 | 806 s
